≈ marks a conversion by molar mass, not a printed value. Like-named read-outs stand apart in the source and are kept apart here. Where a SMILES comes first, the peptide text is derived from it. Where no end group is shown, it is not given here. [ ]: non-standard residue; d: D form. The star is where a group is joined. Orn(α-tetramethylguanidino) = CN(C)C(=N[C@@H](CCCN)C(=O)*)N(C)C; Orn = NCCC[C@H](N)C(=O)O
Columns and labels:
in vitro = in vitro ADME, mouse; settings: 37° C.
Experimental: Serum stability studies were carried out in duplicate as described by Hoffmann et al.. Briefly, 28 μL of an aqueous peptide or peptidomimetics solution (0.5 mg/mL) was added to 0.2 mL freshly pooled 25% mouse serum (Sigma-Aldrich GmbH, Taufkirchen, Germany) in water. The mixtures were incubated at 37° C. under gentle stirring. The proteins were precipitated with 40 μL of 15% aqueous TCA after incubation times of 0, 0.5, 1, 2, 4 and 6 h at 0° C. for 20 min before centrifuged (13500×G) at 4° C. for 5 min. The supernatants of all samples (240 μL) were neutralized with 1 mol/L aqueous NaOH and immediately stored at −20° C. The supernatants were analyzed by RP-HPLC using a linear acetonitrile gradient as described above with 0.1% TFA as ion pair reagent. Collected fractions of the main peaks were further analyzed by tandem mass spectrometry (MALDI-TOF/TOF-MS, 4700 Proteomics Analyzer, Applied Biosystems GmbH, Weiterstadt, Germany) in positive ion reflector mode using α-cyanohydroxycinnamic acid (50% CH3CN in 0.1% aqueous TFA) as matrix to identify the degradation products of the peptides and peptidomimetics, i.e., metabolites, at the different time points. Serum control samples consisted of 200 μL of pooled 25% mouse serum in water, which were also precipitated with 40 μL 15% aqueous TCA, as described before. Peptide reference samples consisted of 28 μL of the peptide stock solution diluted in 0.2 mL water and 40 μL of 15% aqueous trichloroacetic acid (TCA).

E. coli 45849 = experiment: Growth inhibition assay (MIC); type: cell-based, Escherichia coli; settings: multidrug resistant strain; 1% TSB, 37° C., 20 hrs
Experimental: (§1) The minimal inhibition concentrations (MIC) of the apidaecin-derived peptides and peptide-derivatives were determined by a growth inhibition assay using a serial peptide dilution in sterilized round-bottom 96-well plates (polystyrene, U-bottom, Greiner Bio-One GmbH) with a final volume of 100 μL per well. The bacteria, e.g., E. coli BL21 A1, were grown in nutrient broth (NB, Carl Roth GmbH+Co. KG, Karlsruhe, Germany) at 37° C. over night. To each well of the 96-well plate, 50 μL of the overnight culture adjusted to 5×10^6 CFU/mL in 1% TSB were added. Lyophilized peptides and peptidomimetics were dissolved in 1% TSB (tryptic soy broth) or water to give a final concentration of 250 μg/mL. Fifty μL of the peptide or peptidomimetics solution were added to the first well of a row on the plate and mixed. Fifty μL of the first well containing the peptide solution were transferred to the second well, mixed and again 50 μL transferred to the next well and so on. Thereby, a two-fold dilution series was obtained starting at 250 μg/mL in the first well down to 120 ng/mL in the 12th well of a row giving a final peptide or peptidomimetics concentration from 125 μg/mL (well 1) to 60 ng/mL (well 12). Plates were incubated at 37° C. for 20 hrs. The absorbance was measured at 595 nm using a TECAN micro plate spectrophotometer (Tecan, Germany). All peptides and peptidomimetics were measured in triplicates. Sterilized water was used as a negative control.
(§2) The following multidrug resistant bacteria strains were tested: • Eschericha coli 45849 and D31, • Klebsiella pneumoniae 123132 and K6, • Salmonella typhi S5 and Salmonella enterica subsp. enterica serovar Typhimurium (ATCC 700408), • Rhizobium radiobacter (ATCC 15955 deposited as Agrobacterium tumefaciens).

S. typhi S5 = type: cell-based, Salmonella typhi; settings: S5, 20 h
Experimental: as §1, §2

E. coli D31 = type: cell-based, Escherichia coli; settings: D31, 20 h
Experimental: as §1, §2

K. Pneumonia 123132 = experiment: Growth inhibition assay (MIC); type: cell-based, Klebsiella pneumoniae; settings: multidrug resistant strain; 1% TSB, 37° C., 20 hrs
Experimental: as §1, §2

[1] = tested on: K. Pneumonia K6, ATCC 700603; experiment: Growth inhibition assay (MIC); type: cell-based, Klebsiella pneumoniae; settings: multidrug resistant strain; 1% TSB, 37° C., 20 hrs
Experimental: as §1, §2

[2] = tested on: S. enterica subsp. Enterica serovar. typhi G10215 ATCC 700408; type: cell-based, Salmonella enterica; settings: ATCC 700408, 20 h
Experimental: as §1, §2

M. luteus ATCC 10240 = type: cell-based, Micrococcus luteus; settings: ATCC 10240, 20 h
Summary of the method: (§3)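 Peptides were serially diluted two-fold in 1% TSB, giving final concentrations from 125 μg/mL down to 60 ng/mL, and mixed with overnight bacterial culture adjusted to 5×10^6 CFU/mL in 1% TSB. After 20 hrs at 37 °C, growth was read as absorbance at 595 nm, in triplicate, with sterile water as negative control.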

E. coli 1103 = type: cell-based, Escherichia coli; settings: 1103, 20 h
Experimental: as §1
(§4) The bacteria strains were tested: • Eschericha coli 1103, 10233, BL 21 AI, DC 2, • Klebsiella pneumoniae 681, • Micrococcus luteus ATCC 10240, • Mycobacterium vaccae • Bactillus subtillis 347.

K. pneumonia 681 = type: cell-based, Klebsiella pneumoniae; settings: 20 h
Experimental: as §1, §4

B. subtilis 347 = type: cell-based, Bactillus subtillis; settings: 347, 20 h
Experimental: as §1, §4

[3] = tested on: R. radiobatter ATCC 15955; experiment: Growth inhibition assay (MIC); type: cell-based, Rhizobium radiobacter; settings: multidrug resistant strain; 1% TSB, 37° C., 20 hrs
Experimental: as §1, §2

E. coli BL 21 AI = experiment: Growth inhibition assay (MIC); type: cell-based, Escherichia coli; settings: 1% TSB, 37° C., 20 hrs
Summary of the method: as §3

[4] = 25% aqueous mouse serum, read-out: Half-life time

Compound | half-life at 0.061 mg/mL (in vitro; [4]) | MIC E. coli 45849 (E. coli 45849) | MIC S. typhi S5 (S. typhi S5) | MIC E. coli D31 (E. coli D31) | MIC K. Pneumonia 123132 (K. Pneumonia 123132) | MIC K. Pneumonia K6, ATCC 700603 [1] | MIC S. enterica subsp. Enterica serovar. typhi G10215 ATCC 700408 [2] | MIC M. luteus ATCC 10240 (M. luteus ATCC 10240) | other results
CC[C@H](C)[C@H](NC(=O)[C@@H]1CCCN1C(=O)[C@H](CCCNC(=N)N)NC(=O)[C@@H]1CCCN1C(=O)[C@H](Cc1c[nH]cn1)NC(=O)[C@@H]1CCCN1C(=O)[C@@H]1CCCN1C(=O)[C@H](CCCNC(=N)N)NC(=O)[C@@H]1CCCN1C(=O)[C@H](CCCNC(=N)N)NC(=O)[C@@H]1CCCN1C(=O)[C@@H](NC(=O)[C@H](Cc1ccc(O)cc1)NC(=O)[C@@H](NC(=O)[C@@H]1CCCN1C(=O)[C@H](CCCNC(=N)N)NC(=O)[C@H](CC(N)=O)NC(=O)[C@H](CC(N)=O)NC(=O)[C@H](CCCN)NC(C)=O)C(C)C)[C@@H](C)CC)C(=O)N[C@@H](CCCNC(=N)N)C(=O)N[C@H](C(=O)O)C(C)C [compound 24] (Ac-[Orn]NNRPVYIPRPRPPHPRPIRV-OH) | 4 h | – | – | – | – | – | – | – | –
CC[C@H](C)[C@H](NC(=O)[C@H](Cc1ccc(O)cc1)NC(=O)[C@@H](NC(=O)[C@@H]1CCCN1C(=O)[C@H](CCCNC(=N)N)NC(=O)[C@H](CC(N)=O)NC(=O)[C@H](CC(N)=O)NC(=O)[C@H](CCCN)NC(C)=O)C(C)C)C(=O)N1CCC[C@H]1C(=O)N[C@@H](CCCNC(=N)N)C(=O)N1CCC[C@H]1C(=O)N[C@@H](CCCNC(=N)N)C(=O)N1CCC[C@H]1C(=O)N1CCC[C@H]1C(=O)N[C@@H](Cc1c[nH]cn1)C(=O)N1CCC[C@H]1C(=O)N[C@@H](CCCN)C(=O)N[C@@H](CC(C)C)C(N)=O [compound 82] (Ac-[Orn]NNRPVYIPRPRPPHP[Orn]L-NH2) | > 6 h | 16 µg/mL (≈ 7.3 µM) | 8 µg/mL (≈ 3.65 µM) | 32 µg/mL (≈ 14.6 µM) | 8 µg/mL (≈ 3.65 µM) | 32 µg/mL (≈ 14.6 µM) | 8 µg/mL (≈ 3.65 µM) | – | half-life (in vitro; 25% aqueous serum): The same stability
CC[C@H](C)[C@H](NC(=O)[C@H](Cc1ccc(O)cc1)NC(=O)[C@@H](NC(=O)[C@@H]1CCCN1C(=O)[C@H](CCCNC(=N)N)NC(=O)[C@H](CC(N)=O)NC(=O)[C@H](CC(N)=O)NC(=O)[C@H](CCCN)N=C(N(C)C)N(C)C)C(C)C)C(=O)N1CCC[C@H]1C(=O)N[C@@H](CCCNC(=N)N)C(=O)N1CCC[C@H]1C(=O)N[C@@H](CCCNC(=N)N)C(=O)N1CCC[C@H]1C(=O)N1CCC[C@H]1C(=O)N[C@@H](Cc1c[nH]cn1)C(=O)N1CCC[C@H]1C(=O)N[C@@H](CCCN)C(=O)N[C@@H](CC(C)C)C(N)=O [compound 134] ({Orn(α-tetramethylguanidino)}-NNRPVYIPRPRPPHP[Orn]L-NH2; N-terminus and C-terminus assumed) | – | – | – | – | – | – | – | 4 µg/mL (≈ 1.78 µM) | half-life (in vitro; [4]): > 6 h; MIC E. coli 1103 (E. coli 1103): 32 µg/mL (≈ 14.2 µM); MIC K. pneumonia 681 (K. pneumonia 681): 16 µg/mL (≈ 7.12 µM); MIC B. subtilis 347 (B. subtilis 347): >128 µg/mL
GNNRPVYIPQPRPPHPRI [compound 1] | 2 h | – | – | – | – | – | – | – | –
GNNRPVYIPQPRPPHPRL-NH2 [compound 6] | 0.25 h | 0.5 µg/mL | 0.125 µg/mL | 1 µg/mL | 16 µg/mL | 16 µg/mL | 0.125 µg/mL | – | –
Ac-KNNRPVYIPKPRPPHPRL-NH2 [compound 22] | – | 1 µg/mL | 1 µg/mL | 16 µg/mL | 16 µg/mL | 16 µg/mL | 1 µg/mL | 1.95 µg/mL | MIC R. radiobatter ATCC 15955 [3]: <0.16 µg/mL; MIC E. coli BL 21 AI (E. coli BL 21 AI): 1.95 µg/mL

Reference: patent US20150315241A1, “Antibiotic Peptides” (priority 2007, published 2015)
